Experiment [1] concerns the target T1, human Edg-1(S1P1) (Homo sapiens, UniProt P21453).
T1 construct: expressed in transfected cells; host or cells: HEK-293
Description: Cell system binding test: inhibition of [3H]-S1P binding to Edg-1(S1P1) gene transferred HEK-293 cells. Conditions: 10 μM compound, [3H]-S1P 10 nM, read-out: Cell system binding test % inhibition (10 μM).

Experiment [2] concerns the target T1, human Edg-1(S1P1). As to the kind of experiment: Membrane system binding test: inhibition of [33P]-S1P binding to the membrane fraction of Edg-1(S1P1) gene transferred HEK-293 cells. As to conditions: 10 μM compound; [33P]-S1P 0.1 nM; membrane fraction of Edg-1(S1P1) gene transferred HEK-293 cells; read-out: Membrane system binding test % inhibition (10 μM). In outline:
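Membranes from HEK-293 cells transfected with Edg-1(S1P1) incubated 1 h at 30 °C with 0.1 nM [^33P]-S1P and compound at 10^−5 M (0.1% DMSO), pH 7.4 buffer with fatty acid-free BSA. Filter-bound radioactivity counted; inhibition rate calculated against no-compound binding, with untransfected-cell background subtracted.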

T1 sequence (P21453 whole entry): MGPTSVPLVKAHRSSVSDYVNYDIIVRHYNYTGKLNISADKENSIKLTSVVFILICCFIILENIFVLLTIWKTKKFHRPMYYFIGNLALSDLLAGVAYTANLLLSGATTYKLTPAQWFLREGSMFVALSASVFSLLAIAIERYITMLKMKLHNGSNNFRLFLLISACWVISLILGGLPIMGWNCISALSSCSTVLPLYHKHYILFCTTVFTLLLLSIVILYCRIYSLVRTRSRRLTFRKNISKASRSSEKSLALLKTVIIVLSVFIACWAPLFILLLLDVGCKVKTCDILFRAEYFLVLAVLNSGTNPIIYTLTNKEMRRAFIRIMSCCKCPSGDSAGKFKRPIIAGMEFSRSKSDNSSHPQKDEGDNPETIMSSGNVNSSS

`CCn1c(OCCCCCO)nnc1[C@@H](C)NS(=O)(=O)c1ccc(Cl)cc1` [Compound 380]: the inhibition at 10 µM was determined as 105% in experiment [1] and 85.2% in experiment [2].
The corresponding values for `CCn1c(OCc2ccccc2)nnc1[C@@H](C)NS(=O)(=O)c1ccc(Cl)cc1` [Compound 381] are 97.1% and 94.9%.
For `CCn1c(OC2CCCC2)nnc1[C@@H](C)NS(=O)(=O)c1ccc(Cl)cc1` [Compound 382], the results for the inhibition at 10 µM in experiment [1] and in experiment [2] were 97.8% and 99.6%, respectively.
With `CCN(CC)C(=O)COc1nnc([C@@H](C)NS(=O)(=O)c2ccc(Cl)cc2)n1CC` [Compound 383], the inhibition at 10 µM worked out at 82.2% in experiment [1] and 66% in experiment [2].
The corresponding values for `C=CCCCOc1nnc([C@@H](C)NS(=O)(=O)c2ccc(Cl)cc2)n1CC` [Compound 384] are 104% and 93.5%.
Take `CCn1c(OCC2CCC2)nnc1[C@@H](C)NS(=O)(=O)c1ccc(Cl)cc1` [Compound 385]: the inhibition at 10 µM amounted to 99.9% in experiment [1] and 90.1% in experiment [2].
The matching figures for `CCCOc1nnc([C@@H](Cc2ccccc2)NS(=O)(=O)c2ccc(Cl)cc2)n1CC` [Compound 386]: 103% and 99.5%.
Regarding `CCn1c(OC2CCC2)nnc1[C@@H](C)NS(=O)(=O)c1ccc(Cl)cc1` [Compound 387], the inhibition at 10 µM in experiment [1] came to 102%; in experiment [2], 99.3%.
Turning to `CCn1c(OC2CCCCC2)nnc1[C@@H](C)NS(=O)(=O)c1ccc(Cl)cc1` [Compound 388], the results for the inhibition at 10 µM in experiment [1] and in experiment [2] were 104% and 103%, respectively.
The matching figures for `CCn1c(OCC(C)C)nnc1[C@@H](C)NS(=O)(=O)c1ccc(Cl)cc1` [Compound 389]: 96.3% and 89.6%.
Regarding `CCn1c(OC)nnc1[C@@H](Cc1ccccc1)NS(=O)(=O)c1ccc(Cl)cc1` [Compound 390], the results for the inhibition at 10 µM in experiment [1] and in experiment [2] were 101% and 99.8%, respectively.
Regarding `CCn1c(OCCC(C)C)nnc1[C@@H](C)NS(=O)(=O)c1ccc(Cl)cc1` [Compound 391], the inhibition at 10 µM in experiment [1] was determined as 92.5%; in experiment [2], 78.3%.
The matching figures for `CCn1c(OC2CCOC2)nnc1[C@@H](C)NS(=O)(=O)c1ccc(Cl)cc1` (some centres unmarked) [Compound 392]: 95.6% and 85.1%.
Take `CCn1c(OCCN2CCOCC2)nnc1[C@@H](C)NS(=O)(=O)c1ccc(Cl)cc1` [Compound 393]: the inhibition at 10 µM in experiment [1] was 82.4%; in experiment [2], 65.3%.
`CCn1c(OCCCN2CCOCC2)nnc1[C@@H](C)NS(=O)(=O)c1ccc(Cl)cc1` [Compound 394]: the inhibition at 10 µM in experiment [1] turned out to be 82.9%; in experiment [2] it was 76.9%.
Turning to `CCn1c(OCC(F)(F)F)nnc1[C@@H](C)NS(=O)(=O)c1ccc(Cl)cc1` [Compound 395], the inhibition at 10 µM in experiment [1] was found to be 91.9%; in experiment [2], 83.7%.
On to `CCCCOc1nnc([C@@H](C)NS(=O)(=O)c2ccc(Cl)cc2)n1CC` [Compound 396], for which the inhibition at 10 µM in experiment [1] amounted to 87.9%; in experiment [2], 83.3%.
As to `CCn1c(OCCCC(F)(F)F)nnc1[C@@H](C)NS(=O)(=O)c1ccc(Cl)cc1` [Compound 397], the values for the inhibition at 10 µM in experiment [1] and in experiment [2] were 88.6% and 92%, respectively.
As to `CCn1c(OCCCOC)nnc1[C@@H](C)NS(=O)(=O)c1ccc(Cl)cc1` [Compound 398], the inhibition at 10 µM in experiment [1] was 85.8%; in experiment [2] it was 93.5%.
The matching figures for `CCOc1nnc([C@@H](C)NS(=O)(=O)c2ccc(F)c(C(F)(F)F)c2)n1CC` [Compound 399]: 88.5% and 90.9%.
For `CCOc1nnc([C@@H](C)NS(=O)(=O)c2ccc(Br)s2)n1CC` [Compound 400], the inhibition at 10 µM in experiment [1] is 92.8%; in experiment [2] it was 84.8%.
Take `CCOc1nnc([C@@H](C)NS(=O)(=O)c2ccc(Cl)c(Cl)c2)n1CC` [Compound 401]: the inhibition at 10 µM was 92.8% in experiment [1] and 87.2% in experiment [2].
On to `CCOc1nnc([C@@H](C)NS(=O)(=O)c2ccc3ccccc3c2)n1CC` [Compound 402], for which the inhibition at 10 µM in experiment [1] was determined as 90.4%; in experiment [2] it was 95.8%.
In the case of `CCOc1nnc([C@@H](C)NS(=O)(=O)c2ccc(F)c(F)c2)n1CC` [Compound 403], the results for the inhibition at 10 µM in experiment [1] and in experiment [2] were 86.1% and 85.9%, respectively.
As for `CCOc1nnc([C@@H](C)NS(=O)(=O)c2ccc(C)c(Cl)c2)n1CC` [Compound 404], the inhibition at 10 µM in experiment [1] is 91.2%; in experiment [2] it was 90%.
Turning to `CCOc1nnc([C@@H](C)NS(=O)(=O)c2ccc(Br)c(F)c2)n1CC` [Compound 405], the inhibition at 10 µM in experiment [1] came out at 90.4%; in experiment [2], 88.2%.
On to `CCOc1nnc([C@@H](C)NS(=O)(=O)c2cc3ccccc3s2)n1CC` [Compound 406], for which the inhibition at 10 µM was found to be 90.1% in experiment [1] and 92.5% in experiment [2].
`CCOc1nnc([C@@H](C)NS(=O)(=O)c2ccc(F)c(Cl)c2)n1CC` [Compound 407]: the inhibition at 10 µM amounted to 94.7% in experiment [1] and 81.9% in experiment [2].
For the compound `CCOc1nnc([C@@H](C)NS(=O)(=O)c2cccc(Br)c2)n1CC` [Compound 408], the inhibition at 10 µM in experiment [1] came out at 88.5%; in experiment [2], 84.9%.
On to `CCOc1nnc([C@@H](C)NS(=O)(=O)c2ccc(Br)cc2)n1CC` [Compound 409], for which the inhibition at 10 µM in experiment [1] amounted to 88.1%; in experiment [2], 92.2%.
The corresponding values for `CCOc1nnc([C@@H](C)NS(=O)(=O)c2ccc(C)c(C)c2)n1CC` [Compound 410] are 96.4% and 86.1%.
Regarding `CCOc1nnc([C@@H](C)NS(=O)(=O)c2ccc(C)c(F)c2)n1CC` [Compound 411], the inhibition at 10 µM is 95.9% in experiment [1] and 81.8% in experiment [2].
For the compound `CCOc1nnc([C@@H](C)NS(=O)(=O)c2ccc(Br)c(Br)c2)n1CC` [Compound 412], the inhibition at 10 µM worked out at 99.9% in experiment [1] and 89.1% in experiment [2].
The matching figures for `CCOc1nnc([C@@H](C)NS(=O)(=O)c2ccc([N+](=O)[O-])cc2)n1CC` [Compound 413]: 100% and 93.8%.
Turning to `CCOc1nnc([C@@H](C)NS(=O)(=O)c2cccc(C(F)(F)F)c2)n1CC` [Compound 414], the values for the inhibition at 10 µM in experiment [1] and in experiment [2] were 101% and 81%, respectively.
As to `CCOc1nnc([C@@H](C)NS(=O)(=O)c2cccc(OC(F)(F)F)c2)n1CC` [Compound 415], the inhibition at 10 µM in experiment [1] worked out at 99.6%; in experiment [2], 75.1%.
Turning to `CCOc1nnc([C@@H](C)NS(=O)(=O)c2cccc(OC(F)F)c2)n1CC` [Compound 416], the inhibition at 10 µM in experiment [1] is 100%; in experiment [2] it was 77.7%.
The corresponding values for `CCOc1nnc([C@@H](C)NS(=O)(=O)c2cccc(OC)c2)n1CC` [Compound 417] are 97.9% and 64.8%.
Regarding `CCOc1nnc([C@@H](C)NS(=O)(=O)c2ccc3c(c2)OCO3)n1CC` [Compound 418], the inhibition at 10 µM stood at 99.5% in experiment [1] and 70.4% in experiment [2].
With `CCOc1nnc([C@@H](C)NS(=O)(=O)c2ccc(OC)cc2)n1CC` [Compound 420], the figures for the inhibition at 10 µM in experiment [1] and in experiment [2] were 93.3% and 50.1%, respectively.
With `CCn1c(OC)nnc1[C@@H](Cc1ccc(Cl)cc1)NS(=O)(=O)c1ccc(Cl)cc1` [Compound 426], the inhibition at 10 µM in experiment [1] amounted to 95.7%; in experiment [2] it was 101%.
For `CCn1c(OC)nnc1[C@@H](C)NS(=O)(=O)c1cc2ccccc2o1` [Compound 427], the inhibition at 10 µM amounted to 97.5% in experiment [1] and 67% in experiment [2].
As to `CCOc1nnc([C@@H](C)NS(=O)(=O)c2ccc(Br)c(C)c2)n1CC` [Compound 428], the results for the inhibition at 10 µM in experiment [1] and in experiment [2] were 101% and 99.2%, respectively.
Turning to `CCOc1nnc([C@@H](C)NS(=O)(=O)c2ccc(C)cc2)n1CC` [Compound 429], the inhibition at 10 µM was 95.1% in experiment [1] and 74.2% in experiment [2].
Turning to `CCOc1nnc([C@@H](C)NS(=O)(=O)c2cccc(Cl)c2C)n1CC` [Compound 430], the values for the inhibition at 10 µM in experiment [1] and in experiment [2] were 97.9% and 89.2%, respectively.
The corresponding values for `CCOc1nnc([C@@H](C)NS(=O)(=O)c2ccc3nsnc3c2)n1CC` [Compound 431] are 98% and 94.6%.
For `CCOc1nnc([C@@H](C)NS(=O)(=O)c2ccc(C(F)(F)F)cc2)n1CC` [Compound 432], the inhibition at 10 µM was 92.2% in experiment [1] and 82.9% in experiment [2].
Take `CCOc1nnc([C@@H](C)NS(=O)(=O)c2cc(F)cc(F)c2)n1CC` [Compound 433]: the values for the inhibition at 10 µM in experiment [1] and in experiment [2] were 93.8% and 70.2%, respectively.
As to `CCOc1nnc([C@@H](C)NS(=O)(=O)c2cc(Cl)c(Cl)s2)n1CC` [Compound 434], the inhibition at 10 µM in experiment [1] came out at 95.6%; in experiment [2] it was 90.5%.
Regarding `CCOc1nnc([C@@H](C)NS(=O)(=O)c2ccc(I)cc2)n1CC` [Compound 435], the inhibition at 10 µM in experiment [1] was 93.7%; in experiment [2], 86.4%.
For the compound `CCOc1nnc([C@@H](C)NS(=O)(=O)c2ccc(F)cc2)n1CC` [Compound 436], the inhibition at 10 µM in experiment [1] was determined as 94.5%; in experiment [2], 49%.
Consider `CCOc1nnc([C@@H](C)NS(=O)(=O)c2ccc(Br)c(C(F)(F)F)c2)n1CC` [Compound 437], for which the inhibition at 10 µM in experiment [1] came out at 101%; in experiment [2], 93.9%.

For orientation: inhibition means the relative decrease from the control value, in per cent.
